Test results as given in patent US20250170139A1, “AZASETRON FOR THE TREATMENT OF SUDDEN SENSORINEURAL HEARING LOSS” (SENSORION, priority 2022, published 2025).

Key:
[1] = test system: subjects suffering from sudden sensorineural hearing loss (SSNHL); assay: Phase 2b/3 study: change in pure tone audiometry (PTA) from baseline in affected ear; assay type: in vivo, human
Experimental: (§1) A randomized, double-blind, placebo-controlled, parallel-group phase 2b/3 study was conducted with the aim to assess efficacy and safety of (R)-azasetron in subjects suffering from sudden sensorineural hearing loss. Treatment was administered for 4 weeks (i.e., 28 days) and the study was concluded with an 8-week follow-up at day 84.
(§2) Subjects were included in the study if they presented with sudden sensorineural hearing loss (SSNHL) and met the following criteria: • male or female, • aged at least 18 years old, • subjects with unilateral idiopathic SSNHL or unilateral/bilateral acute acoustic trauma leading to SSNHL defined by both: • at least one hearing threshold of 50 dB or more amongst the 3 most affected contiguous frequencies on pure tone audiometric air conduction testing performed 24 hours or less prior to first study drug intake, and • mean hearing loss of 30 dB or more, averaged across the 3 most affected contiguous frequencies on pure tone audiometric air conduction testing performed 24 hours or less prior to first study treatment, compared with the unaffected contralateral ear or reference values from a pre-existing audiogram (dated less than 2 years) • subjects with sudden hearing loss with onset within 96 hours prior to first study drug intake.
As indicated above, hearing loss was determined with pure tone audiometry (PTA) or pure tone audiometric testing, in particular with pure tone audiometric air conduction testing.
In the present study, pure tone air- and bone-conduction hearing thresholds were determined for each ear (best ear at first) at 0.25, 0.5, 1, 2, 3, 4, 6, and 8 kHz for air conduction and at 0.5, 1, 2, 3, 4 kHz for bone conduction, using the descending method of limits (modified Hughson Westlake procedure as follows: initial descent towards threshold is accomplished in 10-dB steps. Beginning with the first nonresponse, level is increased by 5-dB for each non-response and decreased by 10-dB after each correct detection response). The hearing threshold was defined as the lowest audible level, measured twice out of three presentations to the subject.
The baseline pure tone audiometry test was defined as the last test performed at site within 24 hours prior to the first study drug administration. The PTA was expressed as the average of the hearing threshold (in dB) of the 3 most affected contiguous test frequencies (air conduction). Therefore, a higher PTA corresponds to a higher hearing threshold and thus to a poorer hearing. Conversely, a lower PTA corresponds to a lower hearing threshold and thus to a better hearing.
The hearing loss was defined as the difference between the PTA expressed as the average of the hearing threshold (in dB) at the 3 most affected contiguous test frequencies (air pure tone average) and the corresponding PTA expressed as the average hearing threshold of the contralateral ear or values from a pre-existing audiogram (dated less than 2 years) for the same frequencies (mandatory for bilateral acute acoustic trauma). The contiguous frequencies used to determine the PTA at baseline remained fixed for all subsequent evaluations. In case of bilateral acute acoustic trauma leading to sudden sensorineural hearing loss, the most affected ear according to the inclusion criteria was considered for the analysis. If both ears were equally affected, the right ear was considered.
134 subjects were assessed for eligibility according to the criteria listed above. […]

[2] = test system: subjects suffering from sudden sensorineural hearing loss (SSNHL); assay: Phase 2b/3 study: speech discrimination test, change in word recognition score (WRS) from baseline; assay type: in vivo, human; settings: SENS-401 29 mg/BID
Experimental: as §1, §2
134 subjects were assessed for eligibility according to the criteria listed above. 115 subjects were randomized with a ratio 1:1:1 in the three following groups (i.e., treatment arms): • 38 subjects were included in the group administered for 28 days (i.e., 4 weeks) with placebo, • 38 subjects were included in the group administered for 28 days (i.e., 4 weeks) with a “low” dose of (R)-azasetron, defined as a total daily dose of 58 mg of (R)-azasetron (corresponding to a daily dose of 40 mg free base equivalent); and • 39 subjects were included in the group administered for 28 days (i.e., 4 weeks) with a “high” dose of (R)-azasetron, defined as a total daily dose of 87 mg of (R)-azasetron (corresponding to a daily dose of 60 mg free base equivalent).
Subjects were administered placebo or (R)-azasetron (also designated as SENS-401) for 28 days (i.e., 4 weeks). (R)-azasetron was administered orally twice a day either at a dose of 29 mg/BID (bis in die) or at a dose of 43.5 mg/BID (corresponding to a total daily dose of 40 mg and 60 mg free base equivalent, respectively).
Subjects included in the study were monitored with a first visit at day −4 to day 0 (screening), followed by a visit at day 1 (D1-randomization and inclusion day), day 7 (D7, ±2 days), day 14 (D14, ±2 days), day 28 (D28±3 days−end of treatment), and day 84 (D84±3 days-follow-up visit marking the end of study). Monitoring included audiometric tests (PTA), speech audiometry, numerical rating scales and questionnaires. Additionally, subjects included in the study were closely monitored for adverse events throughout the study.
Additionally, the efficacy of SENS-401 was also assessed by conducting speech audiometry, in particular by conducting a speech discrimination test (also known as word recognition test) to determine a word recognition score (WRS).
Speech discrimination or word recognition is the ability to repeat correctly an open set of monosyllabic words at supra threshold intensity (for example at 60 dB or at 80 dB). The word recognition score (WRS) is thus the percentage of test words correctly repeated by the subject. The test is administered in a quiet room without any competing noise. […]

[3] = day 28, SENS-401 high 43.5 mg/BID, subpopulation PTA at baseline ≥80 dB (idiopathic SSNHL, corticoids)
[4] = day 28, SENS-401 high 43.5 mg/BID, subpopulation PTA at baseline ≥90 dB (idiopathic SSNHL, corticoids)
[5] = day 28, SENS-401 low 29 mg/BID (40 mg/day free base equivalent), ITT overall study population, idiopathic SSNHL who received corticoids
[6] = day 28, SENS-401 low 29 mg/BID, subpopulation PTA at baseline ≥80 dB & initial frequency range ≤2000 Hz (idiopathic SSNHL, corticoids)
[7] = day 84, SENS-401 high 43.5 mg/BID (60 mg/day free base equivalent), overall study population, idiopathic SSNHL who received corticoids
[8] = day 84, SENS-401 high 43.5 mg/BID, subpopulation PTA at baseline ≥80 dB (idiopathic SSNHL, corticoids)
[9] = day 84, SENS-401 high 43.5 mg/BID, subpopulation PTA at baseline ≥90 dB (idiopathic SSNHL, corticoids)
[10] = day 84, SENS-401 high 43.5 mg/BID, subpopulation initial hearing loss ≥91 dB (ASHA Profound; idiopathic SSNHL, corticoids)
[11] = day 84, SENS-401 low 29 mg/BID (40 mg/day free base equivalent), ITT overall study population
[12] = day 84, SENS-401 low 29 mg/BID (40 mg/day free base equivalent), ITT overall study population, idiopathic SSNHL who received corticoids
[13] = day 84, SENS-401 low 29 mg/BID, subpopulation PTA at baseline ≥80 dB & initial frequency range ≤2000 Hz (idiopathic SSNHL, corticoids)
[14] = day 84, SENS-401 low 29 mg/BID, subpopulation initial frequency range ≤2000 Hz (of overall study population)
[15] = day 84, SENS-401 low 29 mg/BID, subpopulation initial hearing loss ≥91 dB (ASHA Profound; idiopathic SSNHL, corticoids)
[16] = day 84, SENS-401 low 29 mg/BID, subpopulation vertigo at baseline (idiopathic SSNHL, corticoids)

## CN1C(=O)COc2c(C(=O)N[C@H]3CN4CCC3CC4)cc(Cl)cc21 [SENS-401, (R)-azasetron besylate]
[1]; day 28, SENS-401 29 mg/BID (40 mg/day free base equivalent), subpopulation PTA at baseline ≥80 dB (idiopathic SSNHL, corticoids), in dB
  ΔPTA SENS-401 vs placebo: −15.2188
[1]; day 28, SENS-401 29 mg/BID (40 mg/day free base equivalent), subpopulation PTA at baseline ≥90 dB (idiopathic SSNHL, corticoids), in dB
  ΔPTA SENS-401 vs placebo: −13.9239
[1]; day 28, SENS-401 29 mg/BID, subpopulation hearing loss at baseline ≥91 dB (idiopathic SSNHL, corticoids)
  ΔPTA SENS-401 vs placebo: −19.8922 dB
[1]; day 28, SENS-401 29 mg/BID, subpopulation vertigo at baseline (idiopathic SSNHL, corticoids), in dB
  ΔPTA SENS-401 vs placebo: −14.0995
[1]; day 28, SENS-401 43.5 mg/BID, subpopulation hearing loss at baseline ≥91 dB (idiopathic SSNHL, corticoids), in dB
  ΔPTA SENS-401 vs placebo: −14.8893
[1]; day 28, SENS-401 high 43.5 mg/BID oral (60 mg/day free base equivalent) 28 days, ITT overall study population, idiopathic SSNHL who received corticoids
  Mean change in PTA from baseline: −41.8636 dB
[1]; [3]
  Mean change in PTA from baseline: −54.4635 dB
  ΔPTA SENS-401 vs placebo: −17.7765 dB
[1]; [4]
  Mean change in PTA from baseline: −53.6800 dB
  ΔPTA SENS-401 vs placebo: −23.2680 dB
[1]; [5]
  Mean change in PTA from baseline: −42.0761 dB
  ΔPTA SENS-401 vs placebo: −4.1236 dB
[1]; [6]
  Mean change in PTA from baseline: −59.0918 dB
  ΔPTA SENS-401 vs placebo: −21.7623 dB
[1]; day 84, SENS-401 29 mg/BID (40 mg/day free base equivalent), subpopulation PTA at baseline ≥80 dB (idiopathic SSNHL, corticoids), in dB
  ΔPTA SENS-401 vs placebo: −19.4991
[1]; day 84, SENS-401 29 mg/BID (40 mg/day free base equivalent), subpopulation PTA at baseline ≥90 dB (idiopathic SSNHL, corticoids), in dB
  ΔPTA SENS-401 vs placebo: −19.0242
[1]; [7]
  Mean change in PTA from baseline: −46.3161 dB
  ΔPTA SENS-401 vs placebo: −9.0984 dB
[1]; [8]
  Mean change in PTA from baseline: −61.2123 dB
  ΔPTA SENS-401 vs placebo: −25.6472 dB
[1]; [9]
  Mean change in PTA from baseline: −57.7398 dB
  ΔPTA SENS-401 vs placebo: −28.6788 dB
[1]; [10]
  Mean change in PTA from baseline: −44.9102 dB
  ΔPTA SENS-401 vs placebo: −26.2796 dB
[1]; [11]
  Mean change in PTA from baseline: −32.4686 dB
  ΔPTA SENS-401 vs placebo: −7.0694 dB
[1]; [12]
  Mean change in PTA from baseline: −45.9263 dB
  ΔPTA SENS-401 vs placebo: −8.7086 dB
[1]; [13]
  Mean change in PTA from baseline: −61.7417 dB
  ΔPTA SENS-401 vs placebo: −26.6903 dB
[1]; [14]
  Mean change in PTA from baseline: −44.6900 dB
  ΔPTA SENS-401 vs placebo: −11.6405 dB
[1]; [15]
  Mean change in PTA from baseline: −46.6683 dB
  ΔPTA SENS-401 vs placebo: −28.0377 dB
[1]; [16]
  Mean change in PTA from baseline: −44.8233 dB
  ΔPTA SENS-401 vs placebo: −21.8040 dB
[2]; day 28, subpopulation PTA at baseline ≥70 dB (of overall study population)
  ΔWRS SENS-401 vs placebo: 12.9673%
[2]; day 28, WRS assessed at 60 dB, subpopulation vertigo at baseline
  ΔWRS SENS-401 vs placebo: 35.5287%
[2]; day 28, WRS at 60 dB, overall study population
  ΔWRS SENS-401 vs placebo: 8.8241%
[2]; day 84, WRS assessed at 60 dB, subpopulation vertigo at baseline
  ΔWRS SENS-401 vs placebo: 53.1273%
[2]; day 84, WRS at 80 dB, subpopulation vertigo at baseline
  change in WRS from baseline (effect vs placebo, in words): significant beneficial effect
